From paper PMC12475274, “Harnessing indole scaffolds to identify small-molecule IRE1α inhibitors modulating XBP1 mRNA splicing” (Nature Communications, 2025)
Several values for one entry are separate records, joined by “and”; a condition that tells them apart may be missing. Equal values may be shown once. Entries after “also recorded” stand apart in the source; their conditions may differ. Read-outs that look alike come from different tables or passages of the source.

How the values were obtained:
[1] = target: T1, phosphorylated IRE1α (p-IRE1α) (Homo sapiens, UniProt O75460); assay: FRET-based IRE1α RNase activity assay, phosphorylated IRE1α; format: biochemical; settings: for inhibition(%): p-IRE1a
T1 construct: Human IRE1α kinase and RNase domain (residues 547–977) was subcloned into pLIB plasmid; His tag (with TEV cleavage site) (N, cleaved yes); made in house; host or cells: Sf9 insect cells, baculovirus (Bac-to-Bac)
T1 sequence (O75460 547-977): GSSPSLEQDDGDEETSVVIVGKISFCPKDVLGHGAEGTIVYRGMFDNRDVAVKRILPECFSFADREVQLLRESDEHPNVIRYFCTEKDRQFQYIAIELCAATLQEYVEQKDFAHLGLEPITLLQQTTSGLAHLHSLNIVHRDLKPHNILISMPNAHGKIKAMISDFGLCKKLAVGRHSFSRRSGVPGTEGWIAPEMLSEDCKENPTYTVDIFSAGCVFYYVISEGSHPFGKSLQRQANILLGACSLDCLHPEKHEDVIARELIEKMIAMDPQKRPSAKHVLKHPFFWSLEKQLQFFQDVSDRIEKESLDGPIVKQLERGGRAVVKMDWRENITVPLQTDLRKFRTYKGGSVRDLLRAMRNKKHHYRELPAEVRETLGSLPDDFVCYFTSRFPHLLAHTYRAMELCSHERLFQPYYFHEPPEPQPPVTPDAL
In short: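 Cleavage of a dual-labeled XBP1 RNA (200 nM) was followed kinetically over 1 h at room temperature at 485/535 nm, with initial slopes giving percent inhibition and IC50. Enzyme was 4 nM phosphorylated human IRE1α 547–977 from insect cells, incubated with compound for 30 min before substrate; buffer 20 mM HEPES pH 7.5, KOAc, MgOAc2, DTT, Triton X-100.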

[2] = target: T2, p-IRE1α (Homo sapiens, UniProt O75460); assay: Differential scanning fluorimetry (DSF), p-IRE1α; format: binding; settings: for p-IRE1a ∆Tm(°C): individual replicate values; for p-IRE1a ∆Tm: DSF, individual measurements
T2 construct: Human IRE1α kinase and RNase domain (residues 547–977) was subcloned into pLIB plasmid; His tag (with TEV cleavage site) (N, cleaved yes); made in house; host or cells: Sf9 insect cells, baculovirus (Bac-to-Bac)
T2 sequence (O75460 547-977): as above
Procedure: (§1) The DSF assay was performed in PBS buffer containing 2 mM DTT, in a total reaction volume of 20 µl with indicated compounds (final 1% DMSO) and the final concentration of 1 µM IRE1α protein and 5× SYPRO Orange fluorescent dye (5000× in DMSO, Sigma S5692). The melting curve was measured at a temperature range from 25 °C to 95 °C and in increments of 1 °C for 30 s using a Bio-Rad CFX96 Real-Time PCR detection system with the FRET scan mode. The melting temperature (Tm) was obtained by fitting the melting curve to Boltzmann sigmoidal in GraphPad Prism and the thermal shift (∆Tm) was calculated by using the equation: ∆Tm = Tm(compound) -Tm(DMSO).

[3] = target: T3, IRE1α (Homo sapiens, UniProt O75460); assay: Differential scanning fluorimetry (DSF), IRE1α; format: binding; settings: for IRE1a ∆Tm: DSF, individual measurements; for IRE1 ∆Tm(°C): replicate values
T3 construct: Human IRE1α kinase and RNase domain (residues 547–977) was subcloned into pLIB plasmid; His tag (with TEV cleavage site) (N, cleaved yes); made in house; host or cells: Sf9 insect cells, baculovirus (Bac-to-Bac)
T3 sequence (O75460 547-977): as above
Procedure: as §1

[4] = FRET assay, RNase activity, mean (± SEM), read-out: p-IRE1α IC50
[5] = FRET assay, source data, unit from Fig. 3, read-out: p-IRE1a IC50, individual replicates (n1-n4)
[6] = FRET assay, read-out: p-IRE1α IC50 (RNase activity)

## CCOC(=O)Nc1cccc2c(Oc3ncccc3-c3ccnc(N[C@H]4CCCNC4)n3)c(C)ccc12 [Compound G1749, reference compound]
[1]
  effect on p-IRE1α RNase activity in the FRET assay: inhibiting p-IRE1α; also recorded: inhibit the p-IRE1α RNase activity
[1]; 5.55556 μM
  inhibition(%): 93.9541% and 94.7061% and 91.8428% and 92.9515%
[1]; 16.6667 μM
  inhibition(%): 92.2815% and 93.8095% and 92.7972% and 92.696%
[1]; 50 μM
  inhibition(%): 92.1465% and 91.4042% and 91.8332% and 89.3845%

## COc1ccc2c(c1)c(CCC(=O)O)c(C)n2C(=O)c1ccc2ccccc2c1 [IA34]
[2]; compound 6.25 μM
  p-IRE1a ∆Tm(°C): 0.04 °C and -0.01 °C
[2]; compound 12.5 μM
  p-IRE1a ∆Tm(°C): 0 °C and -0.08 °C
[2]; compound 25 μM
  p-IRE1a ∆Tm(°C): 0.02 °C and 0.03 °C
[2]; compound 50 μM
  p-IRE1a ∆Tm(°C): 0.03 °C and 0.12 °C
[3]
  stabilization of IRE1α in DSF: did not show any detectable changes
[1]; FRET assay, RNase activity, mean (± SEM)
  p-IRE1α IC50: IC₅₀ not reached
[1]; [4]
  IC50: > 20000 nM
[1]; IA34 0.000847 μM, Supplementary Fig. 3b, replicate values
  inhibition(%): 2.43% and -1.86% and 1.39%
[1]; IA34 0.00254 μM, Supplementary Fig. 3b, replicate values
  inhibition(%): -5.52% and -18.14% and 21.30% and 14.33%
[1]; IA34 0.007621 μM, Supplementary Fig. 3b, replicate values
  inhibition(%): 0.79% and -13.95% and -1.17% and 1.14%
[1]; IA34 0.022862 μM, Supplementary Fig. 3b, replicate values
  inhibition(%): 1.11% and -4.73% and 39.51% and 0.29%
[1]; IA34 0.068587 μM, Supplementary Fig. 3b, replicate values
  inhibition(%): -18.24% and -15.02% and -11.07% and -8.20%
[1]; IA34 0.205761 μM, Supplementary Fig. 3b, replicate values
  inhibition(%): -19.34% and -16.85% and 12.47% and -7.35%
[1]; IA34 0.617284 μM, Supplementary Fig. 3b, replicate values
  inhibition(%): 15.53% and 10.67% and -18.52% and -10.41%
[1]; IA34 1.85185 μM, Supplementary Fig. 3b, replicate values
  inhibition(%): -19.37% and -18.05% and -6.66% and -19.44%
[1]; IA34 5.55556 μM, Supplementary Fig. 3b, replicate values
  inhibition(%): 14.49% and 0.73% and 11.46% and -10.03%
[1]; IA34 16.6667 μM, Supplementary Fig. 3b, replicate values
  inhibition(%): 26.07% and 13.29% and -8.49% and -17.54%
[1]; IA34 50 μM, Supplementary Fig. 3b, replicate values
  inhibition(%): -20.79% and 2.08% and 7.61% and 4.39%

## COc1ccc2c(c1)c(CCC(=O)O)c(C)n2C(=O)c1ccc(Cl)cc1 [IA01]
[2]
  stabilization of p-IRE1α in DSF: concentration-dependently stabilized
[2]; compound 25 μM
  p-IRE1a ∆Tm: 0.52 °C and 0.47 °C
[2]; compound 50 μM
  p-IRE1a ∆Tm: 0.91 °C and 1.02 °C
[3]
  stabilization of IRE1α in DSF: stabilized IRE1α concentration-dependently
[3]; compound 25 μM
  IRE1a ∆Tm: 1.17 °C and 1.02 °C
[3]; compound 50 μM
  IRE1a ∆Tm: 1.57 °C and 1.89 °C
[1]; FRET assay at 50 μM, mean (± SEM), read-out: p-IRE1α inhibition%
  inhibition at 50 µM: 99.3%
[1]; FRET assay at 50 μM, source data, 50 µM
  p-IRE1a Inhibiton%, individual measurements: 102.461% and 99.7014% and 101.879% and 92.3671% and 96.3072%
[1]; FRET assay at 50 μM, source data, read-out: p-IRE1a Inhibiton%, individual measurements
  inhibition at 50 µM: 103%
[1]; [4]
  IC50: 320 nM
[1]; [5]
  IC50: 544 nM and 136 nM and 264 nM and 325 nM

## COc1ccc2c(c1)c(CCC(=O)O)c(C)n2C(=O)c1ccccc1 [IA64]
[2]; compound 6.25 μM
  p-IRE1a ∆Tm(°C): 0.67 °C and 0.63 °C
[2]; compound 12.5 μM
  p-IRE1a ∆Tm(°C): 1.12 °C and 1.05 °C
[2]; compound 25 μM
  p-IRE1a ∆Tm(°C): 1.46 °C and 1.49 °C
[2]; compound 50 μM
  p-IRE1a ∆Tm(°C): 2.16 °C and 2.21 °C
[3]
  stabilization of IRE1α in DSF: concentration-dependently stabilized
[3]; compound 6.25 μM, Supplementary Fig. 3c
  IRE1 ∆Tm(°C): 1.2 °C and 1.21 °C
[3]; compound 12.5 μM, Supplementary Fig. 3c
  IRE1 ∆Tm(°C): 1.94 °C and 2.05 °C
[3]; compound 25 μM, Supplementary Fig. 3c
  IRE1 ∆Tm(°C): 2.82 °C and 2.92 °C
[3]; compound 50 μM, Supplementary Fig. 3c
  IRE1 ∆Tm(°C): 3.88 °C
[1]; [4]
  IC50: 37.4 nM
[1]; [6]
  IC50: 30 nM
[1]; [5]
  IC50: 61 nM and 17 nM and 34 nM and 26 nM

## Cc1ccc2c(NS(=O)(=O)c3ccccc3Cl)cccc2c1Oc1ncccc1-c1ccnc(N[C@H]2CCCNC2)n1 [KIRA8]
[1]
  effect on p-IRE1α RNase activity in the FRET assay: inhibit the p-IRE1α RNase activity
[1]; [4]
  IC50: 3 nM

## Cc1c(CCC(=O)O)c2cc(Cl)ccc2n1C(=O)c1ccccc1 [IA141]
[2]; compound 1.563 μM
  p-IRE1a ∆Tm(°C): 0.12 °C and -0.00583 °C and 0.32 °C and -0.0158 °C
[2]; compound 3.125 μM
  p-IRE1a ∆Tm(°C): 0.72 °C and 0.27 °C (2×) and 0.32 °C
[2]; compound 6.25 μM
  p-IRE1a ∆Tm(°C): 0.99 °C and 0.72 °C and 0.76 °C and 0.85 °C
[2]; compound 12.5 μM
  p-IRE1a ∆Tm(°C): 1.57 °C and 1.31 °C and 1.36 °C and 1.19 °C
[2]; compound 25 μM
  p-IRE1a ∆Tm(°C): 2.22 °C and 2.10 °C and 1.74 °C and 2.25 °C
[2]; compound 50 μM
  p-IRE1a ∆Tm(°C): 2.87 °C and 2.43 °C and 2.53 °C and 2.76 °C
[2]; compound 100 μM
  p-IRE1a ∆Tm(°C): 3.32 °C and 3.36 °C and 3.61 °C and 3.33 °C
[3]
  stabilization of IRE1α in DSF: concentration-dependently stabilized
[3]; compound 1.563 μM, Supplementary Fig. 3d/3e
  IRE1 ∆Tm(°C): 0.63 °C and 0.81 °C and 0.65 °C and 0.58 °C
[3]; compound 3.125 μM, Supplementary Fig. 3d/3e
  IRE1 ∆Tm(°C): 1.12 °C and 1.18 °C and 0.97 °C and 1.08 °C
[3]; compound 6.25 μM, Supplementary Fig. 3d/3e
  IRE1 ∆Tm(°C): 1.79 °C and 1.73 °C and 1.77 °C and 1.66 °C
[3]; compound 12.5 μM, Supplementary Fig. 3d/3e
  IRE1 ∆Tm(°C): 2.82 °C and 2.70 °C and 2.75 °C and 2.68 °C
[3]; compound 25 μM, Supplementary Fig. 3d/3e
  IRE1 ∆Tm(°C): 3.71 °C and 3.59 °C and 3.83 °C and 3.70 °C
[3]; compound 50 μM, Supplementary Fig. 3d/3e
  IRE1 ∆Tm(°C): 4.64 °C and 4.50 °C and 4.51 °C and 4.69 °C
[3]; compound 100 μM, Supplementary Fig. 3d/3e
  IRE1 ∆Tm(°C): 5.27 °C (2×) and 5.25 °C and 5.36 °C
[1]; [4]
  IC50: 82 nM and 80 nM
[1]; [5]
  IC50: 98.9 nM and 83.6 nM and 62.4 nM

## Cc1c(CCC(=O)O)c2cc(Br)ccc2n1C(=O)c1ccccc1 [IA107]
[2]
  stabilization of p-IRE1α in DSF: stabilized phosphorylated IREα concentration-dependently
[2]; compound 25 μM
  p-IRE1a ∆Tm: 1.94 °C and 2.53 °C and 2.1 °C and 2.61 °C
[2]; compound 50 μM
  p-IRE1a ∆Tm: 3.27 °C and 3.18 °C and 2.63 °C and 3 °C
[2]; compound 100 μM
  p-IRE1a ∆Tm: 3.1 °C and 3.74 °C and 2.72 °C and 2.61 °C
[3]
  stabilization of IRE1α in DSF: concentration-dependently stabilized
[3]; compound 25 μM
  IRE1a ∆Tm: 4.2925 °C (2×) and 4.2325 °C and 4.2625 °C
[3]; compound 50 μM
  IRE1a ∆Tm: 5.1825 °C and 5.3725 °C and 5.2525 °C and 5.2825 °C
[3]; compound 100 μM
  IRE1a ∆Tm: 5.7825 °C and 5.7925 °C (2×) and 5.8625 °C
[1]; [4]
  IC50: 9.31 nM
[1]; [6]
  IC50: 9 nM
[1]; [5]
  IC50: 11.1 nM and 10.2 nM and 6.6 nM

## CCOC(=O)CCc1c(C)n(C(=O)c2ccccc2)c2ccc(Br)cc12 [IAPD1]
[1]
  effect on p-IRE1α RNase activity in the FRET assay: did not inhibit the RNase activity
[1]; 0.00254 μM
  inhibition(%): -4.888% and 2.526% and -4.055% and 4.733%
[1]; 16.6667 μM
  inhibition(%): -1.806% and 4.317% and -3.888% and 0.777%
[1]; 50 μM
  inhibition(%): 0.943% and 1.151% and 1.193% and 2.068%
